Assay [1] has as its system MDA-MB-231. Nature of the assay: Cytotoxicity against human ER-negative MDA-MB-231 cells assessed as cell viability after 72 hrs by MTT assay. It is filed as functional, cell-based. The settings on record: for IC50: MDA-MB-231, 72 h.
For assay [2], the system named is MCF7. The experiment in a line: Cytotoxicity against human ER-positive MCF7 cells assessed as cell viability after 72 hrs by MTT assay. It is filed as functional, cell-based. A general note: Tetrazolium dyes change colour on reduction, which living cells bring about.
In assay [3] the test system is MDA-MB-231. The experiment in a line: Inhibition of cell invasion in human ER-negative MDA-MB-231 cells after 24 hrs by Boyden chamber transwell invasion assay. Format: functional, cell-based.
Assay [4] relates to MDA-MB-231. The experiment in a line: Antimigratory activity in human ER-negative MDA-MB-231 cells assessed as cell migration level at 1 uM after 24 hrs by scratch assay. Format: functional.
Assay [5] concerns MCF7. Nature of the assay: Inhibition of caveolin-1 expression in human ER-positive MCF7 cells after 24 hrs by western blotting. It is filed as functional, cell-based. For orientation: Immunoblotting shows a protein as a band on a membrane.
The test system of assay [6] is MCF7. The experiment in a line: Inhibition of MMP9 expression in human ER-positive MCF7 cells after 24 hrs by western blotting. Format: functional, cell-based.
Assay [7] concerns MCF7. The experiment in a line: Inhibition of c-Myc expression in human ER-positive MCF7 cells after 24 hrs by western blotting. It is filed as functional, cell-based.
Assay [8] deals with MDA-MB-231. The experiment in a line: Antimigratory activity in human ER-negative MDA-MB-231 cells assessed as cell migration level at 0.5 uM after 24 hrs by scratch assay. It is filed as functional.
Assay [9] relates to MDA-MB-231. The experiment in a line: Inhibition of c-Myc expression in human ER-negative MDA-MB-231 cells after 24 hrs by western blotting. It is filed as functional, cell-based.
In assay [10] the test system is MDA-MB-231. Nature of the assay: Inhibition of MMP9 expression in human ER-negative MDA-MB-231 cells after 24 hrs by western blotting. Format: functional, cell-based.
The test system of assay [11] is MDA-MB-231. The experiment in a line: Inhibition of caveolin-1 expression in human ER-negative MDA-MB-231 cells after 24 hrs by western blotting. It is filed as functional, cell-based.
In assay [12] the test system is MDA-MB-231. The experiment in a line: Inhibition of MMP9 expression in human ER-negative MDA-MB-231 cells at 10 and 25 uM after 24 hrs by western blotting. It is filed as functional, cell-based.
Assay [13] has as its system MCF7. The experiment in a line: Inhibition of caveolin-1 expression in human ER-positive MCF7 cells at 10 and 25 uM after 24 hrs by western blotting. Format: functional, cell-based.
The subject of assay [14] is MCF7. Nature of the assay: Inhibition of c-Myc expression in human ER-positive MCF7 cells at 10 and 25 uM after 24 hrs by western blotting. It is filed as functional, cell-based.
Assay [15] deals with MDA-MB-231. Nature of the assay: Inhibition of c-Myc expression in human ER-negative MDA-MB-231 cells at 10 and 25 uM after 24 hrs by western blotting. It is filed as functional, cell-based.
The subject of assay [16] is MDA-MB-231. Nature of the assay: Inhibition of caveolin-1 expression in human ER-negative MDA-MB-231 cells at 10 and 25 uM after 24 hrs by western blotting. It is filed as functional, cell-based.
Assay [17] concerns MCF7. The experiment in a line: Inhibition of MMP9 expression in human ER-positive MCF7 cells at 10 and 25 uM after 24 hrs by western blotting. Format: functional, cell-based.
The mark [18] stands for this setting: Homo sapiens, MCF7, 72 h, read-out: IC50.

Activity calls are given as the source filed them. No cut-off for these calls is given here.

As a reminder, the IC50 is the point on the concentration scale where inhibition reaches its midpoint. In the case of `COc1ccc(/C(=C(/CCCl)c2ccccc2)c2ccccc2)cc1`, the IC50 in the assay with MDA-MB-231 [1] and in the assay with MCF7 [2] (setting [18]) was above 50 µM throughout.

Turning to `CCN(CC)C(=O)NCC/C(=C(\c1ccccc1)c1ccc(OC)cc1)c1ccccc1`, the figures for the IC50 in the assay on MDA-MB-231 [1] and with MCF7 [2] (setting [18]) were 40.7 µM and above 50 µM, respectively.

With `COc1ccc(/C(=C(/CCNC(=O)Oc2ccccc2)c2ccccc2)c2ccccc2)cc1`, the result with MDA-MB-231 [1] was inactive. For the same compound, in the assay with MCF7 [2] (mcf7), the half-maximal inhibitory concentration (IC50) result is “Not Active”.

Take `COc1ccc(/C(=C(/CCNC(=O)C(=O)N2CCCC2)c2ccccc2)c2ccccc2)cc1`: the IC50 was 48.6 µM in the assay with MDA-MB-231 [1] and above 50 µM with MCF7 [2] (setting [18]).

Regarding `COc1ccc(/C(=C(/CCN)c2ccccc2)c2ccccc2)cc1`, the inhibition result with MDA-MB-231 [3], in the assay with MCF7 [5], in the assay with MCF7 [6], with MCF7 [7], in the assay on MDA-MB-231 [9] and in the assay with MDA-MB-231 [10] was “Dose-dependent effect” each time. The inhibition result with MDA-MB-231 [11] is “Dose-dependent effect”. Further, the Activity in the assay with MDA-MB-231 [4] is given as 25%; in the assay with MDA-MB-231 [8], 60%.

With `COc1ccc(/C(=C(/CCNC(=O)N2CCOCC2)c2ccccc2)c2ccccc2)cc1`, the half-inhibitory concentration (IC50) in the assay with MDA-MB-231 [1] is 42.8 µM; in the assay with MCF7 [2] (setting [18]) it was above 50 µM.

Turning to `COc1ccc(/C(=C(/CCNC(=O)C(=O)N2CCCCC2)c2ccccc2)c2ccccc2)cc1`, the IC50 in the assay with MDA-MB-231 [1] and in the assay on MCF7 [2] (setting [18]) was above 50 µM each time.

With `COc1ccc(/C(=C(/CCN=[N+]=[N-])c2ccccc2)c2ccccc2)cc1`, the result in the assay on MDA-MB-231 [1] was inactive. Besides, in the assay on MCF7 [2] (mcf7), the IC50 entry is reported as “Not Active”.

Regarding `COc1ccc(/C(=C(/CCNC(=O)NC2CCCCC2)c2ccccc2)c2ccccc2)cc1`, the IC50 in the assay on MDA-MB-231 [1] is above 50 µM; with MCF7 [2] (setting [18]) it was 37.2 µM.

In the case of `COc1ccc(/C(=C(/CCNC(=O)C(=O)N2CCOCC2)c2ccccc2)c2ccccc2)cc1`, the IC50 in the assay on MDA-MB-231 [1] stood at 20 µM; in the assay with MCF7 [2] (setting [18]) it was 43.4 µM.

With `COc1ccc(/C(=C(/CCNC(=O)N2CCCCC2)c2ccccc2)c2ccccc2)cc1`, the 50% inhibitory concentration (IC50) in the assay with MDA-MB-231 [1] and in the assay with MCF7 [2] (setting [18]) was above 50 µM throughout.

For `COc1ccc(/C(=C(/CCNC(=O)C(=O)NCc2ccccc2)c2ccccc2)c2ccccc2)cc1`, the inhibition entry in the assay with MDA-MB-231 [12], in the assay with MCF7 [14], in the assay with MDA-MB-231 [15] and in the assay with MCF7 [17] was “Active” each time. In addition, the inhibition entry in the assay with MCF7 [13] and in the assay with MDA-MB-231 [16] was “inactive” each time. Besides, the result in the assay on MDA-MB-231 [4] was inactive. Moreover, the figures for the IC50 in the assay on MDA-MB-231 [1] and in the assay on MCF7 [2] (setting [18]) were 11.5 µM and above 50 µM, respectively.

For `OCCOc1ccc(/C(=C(/CCCl)c2ccccc2)c2ccccc2)cc1` [OSPEMIFENE], in the assay with MDA-MB-231 [4], the result was inactive. Moreover, the IC50 with MDA-MB-231 [1] and in the assay on MCF7 [2] (setting [18]) was above 50 µM each time.

In the case of `CCOC(=O)C(=O)NCC/C(=C(\c1ccccc1)c1ccc(OC)cc1)c1ccccc1`, the IC50 in the assay on MDA-MB-231 [1] and in the assay with MCF7 [2] (setting [18]) was above 50 µM throughout.

Regarding `COc1ccc(/C(=C(/CCNC(=O)C(=O)NC2CCCCC2)c2ccccc2)c2ccccc2)cc1`, the inhibition result with MDA-MB-231 [12], in the assay with MCF7 [14], with MDA-MB-231 [15] and in the assay with MCF7 [17] was “Active” throughout. The inhibition entry with MCF7 [13] and in the assay on MDA-MB-231 [16] was “inactive” throughout. Moreover, the outcome in the assay with MDA-MB-231 [4] was inactive. Besides, the values for the IC50 with MDA-MB-231 [1] and in the assay on MCF7 [2] (setting [18]) were 12.2 µM and 12.1 µM, respectively.

Regarding `COc1ccc(/C(=C(/CCNC(=O)N2CCCC2)c2ccccc2)c2ccccc2)cc1`, the IC50 with MDA-MB-231 [1] and in the assay on MCF7 [2] (setting [18]) was above 50 µM each time.

For `COc1ccc(/C(=C(/CCNC(=O)NCc2ccccc2)c2ccccc2)c2ccccc2)cc1`, the IC50 in the assay with MDA-MB-231 [1] and in the assay on MCF7 [2] (setting [18]) was above 50 µM throughout.

Source of the values: ChEMBL document CHEMBL3785016, “Design, synthesis, and anti-breast cancer evaluation of new triarylethylene analogs bearing short alkyl- and polar amino-/amido-ethyl chains” (Bioorg Med Chem Lett, 2016).
